What is called IC50 is the concentration needed to halve the response being measured.

Results on 68 molecules are retold here after patent publication US9783505B2, “Substituted diaminopyrimidyl compounds, compositions thereof, and methods of treatment therewith” (Signal Pharmaceuticals, LLC, priority 2013, dated 2017).

A value given as a limit tells only on which side of the number the result lay.

One experiment deals with T1, His-PKC-theta (Homo sapiens, UniProt Q04759).
T1 construct: His; purchased Invitrogen
T1 sequence (Q04759 whole entry): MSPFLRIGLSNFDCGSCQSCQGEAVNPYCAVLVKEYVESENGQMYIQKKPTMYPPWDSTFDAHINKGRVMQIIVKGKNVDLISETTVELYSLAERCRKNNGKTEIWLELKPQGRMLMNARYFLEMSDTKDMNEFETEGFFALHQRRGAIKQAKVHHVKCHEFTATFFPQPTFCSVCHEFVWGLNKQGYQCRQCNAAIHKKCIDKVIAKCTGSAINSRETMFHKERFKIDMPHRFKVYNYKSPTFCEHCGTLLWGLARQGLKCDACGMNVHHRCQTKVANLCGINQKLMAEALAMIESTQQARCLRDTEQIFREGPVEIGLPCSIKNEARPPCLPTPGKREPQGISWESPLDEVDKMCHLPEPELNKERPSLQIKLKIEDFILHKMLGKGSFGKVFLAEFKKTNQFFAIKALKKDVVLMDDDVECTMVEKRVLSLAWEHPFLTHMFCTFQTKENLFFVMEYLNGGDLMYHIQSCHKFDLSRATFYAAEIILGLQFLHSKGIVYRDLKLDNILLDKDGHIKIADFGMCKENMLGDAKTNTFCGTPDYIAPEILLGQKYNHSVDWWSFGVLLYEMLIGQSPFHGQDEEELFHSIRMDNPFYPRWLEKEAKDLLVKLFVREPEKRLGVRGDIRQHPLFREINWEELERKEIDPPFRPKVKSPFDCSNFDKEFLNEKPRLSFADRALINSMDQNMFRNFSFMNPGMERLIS
The experiment is described as follows: PKC-theta Assay (384-well time resolved fluorescence, IMAP TR-FRET). It is filed as biochemical. To be noted: Table 2; read-out: Act. Level (IC50 in the PKC-theta Assay). As for the experimental part:
PKC-theta Assay. A 384-well time resolved fluorescence assay was used to monitor PKC-theta activity. The PKC-theta assay was run in the following assay buffer: 50 mM HEPES pH 7.6, 10 mM MgCl2, 1 mM DTT, 0.01% Triton X-100, 0.01% BSA and 0.1 mM EDTA. To initiate the reaction, 200 nM of Fam-labeled S6-derived peptide (Molecular Devices) and 10 μM of ATP were mixed with 142 pM of His-PKC-theta (Invitrogen) for a total assay volume of 25 μL in each well. The assay was incubated at room temperature for 2 hours and terminated using a 60 μL/well mixture of Detection Binding Solution: 70% IMAP Progressive Binding Buffer A, 30% IMAP Progressive Binding Buffer B, 1:600 Progressive Binding Reagent, and 1:400 TR-FRET Tb Donor (Molecular Devices). The assay plates were then incubated overnight at room temperature and read on a Perkin-Elmer Envision Reader.
As for `Cc1nnnn1-c1ccccc1CNc1ncc(C(F)(F)F)c(NC2CCC(O)C(C)(C)C2)n1` (centres unmarked) [Cmpd 2], the half-maximal inhibitory concentration (IC50) was less than 0.1 µM. Same read-out and setting: next, `CC1(C)C[C@H](Nc2nc(NCCc3ccc(OCC(F)F)cc3)ncc2C#N)CC[C@@H]1O` [Cmpd 170]: less than 0.1 µM; `CC1(C)C[C@H](Nc2nc(NCCc3ccccc3O)ncc2C#N)CC[C@@H]1O` [Cmpd 67]: 0.1 to 0.8 µM.

Turning to `CC1(C)[C@@H](C(N)=O)C[C@H]1Nc1nc(NCCc2cccc(Cl)c2)ncc1C#N` [Cmpd 165], the IC50 was less than 0.1 µM. Still for that read-out and setting: next, `COc1cccc(F)c1CNc1ncc(C#N)c(N[C@H]2CC[C@@H](O)CC2)n1` [Cmpd 22]: 2 to 10 µM. Same read-out and setting: the figure for `CC1(C)[C@H](Nc2nc(NCCc3cccc(Cl)c3)ncc2C#N)C[C@H]1C(N)=O` [Cmpd 163] is 2 to 10 µM; for `CC1(C)[C@@H](O)C[C@H]1Nc1nc(NCCc2ccc(-n3cccn3)cc2)ncc1C#N` [Cmpd 48] it is less than 0.1 µM; for `CC1(C)[C@@H](O)C[C@H]1Nc1nc(NCCc2ccc(Oc3ccccc3)cc2)ncc1C#N` [Cmpd 119] it is 0.1 to 0.8 µM. On the same count and under the same terms, the figure for `CC1(C)C[C@H](Nc2nc(NCC(=O)c3ccc(Cl)cc3)ncc2C#N)CC[C@@H]1O` [Cmpd 81] is 0.1 to 0.8 µM; for `CC1(C)[C@H](CO)C[C@@H]1Nc1nc(NCCc2cccc(Cl)c2)ncc1C#N` [Cmpd 75] it is 0.8 to 2 µM. As for `N#Cc1cnc(NCCc2cccc(Cl)c2)nc1N[C@H]1C[C@H](O)C1` [Cmpd 71], the IC50 fell in the range of 2 to 10 µM. On the same count and under the same terms, next, `CC1(C)C[C@H](Nc2nc(NCCc3ccc(-n4cccn4)c(Cl)c3)ncc2C#N)CC[C@@H]1O` [Cmpd 181]: less than 0.1 µM. The same measure, in the same setting: next, `CC1(C)C[C@H](Nc2nc(NCCc3ccc(Oc4ccccc4)cc3)ncc2C#N)CC[C@@H]1O` [Cmpd 79]: 0.1 to 0.8 µM; `CC1(C)C[C@H](Nc2nc(NCCc3ccc(S(C)(=O)=O)cc3)ncc2C#N)CC[C@@H]1O` [Cmpd 63]: 0.1 to 0.8 µM. As for `CC1(C)C[C@H](Nc2nc(NCCc3ccc(CN4CCCC4=O)cc3)ncc2C#N)CC[C@@H]1O` [Cmpd 52], the IC50 lay within 0.1 to 0.8 µM. Same read-out and setting: next, `CC1(C)[C@@H](O)C[C@H]1Nc1nc(NCCc2ccc(OC3CCCC3)cc2)ncc1C#N` [Cmpd 118]: 0.8 to 2 µM.

Consider `CC1(C)[C@@H](O)C[C@H]1Nc1nc(NCCc2ccc(Cl)cc2Cl)ncc1C#N` [Cmpd 106], for which the IC50 fell in the range of 0.1 to 0.8 µM. For `Cc1nnnn1-c1cccc(CCNc2ncc(C#N)c(N[C@@H]3CC[C@H](O)C(C)(C)C3)n2)c1` [Cmpd 169], the half-maximal inhibitory concentration (IC50) fell in the range of 0.1 to 0.8 µM. On the same count and under the same terms, the figure for `CC1(C)C[C@H](Nc2nc(NCCc3ccc(OCCF)cc3)ncc2C#N)CC[C@@H]1O` [Cmpd 171] is less than 0.1 µM; for `Cc1nnnn1-c1ccccc1CNc1ncc(C#N)c(N[C@H]2CC[C@@H](O)C(C)(C)C2)n1` [Cmpd 25] it is 2 to 10 µM. Same read-out and setting: next, `CC1(C)[C@H](CO)C[C@H]1Nc1nc(NCCc2cccc(Cl)c2)ncc1C#N` [Cmpd 76]: less than 0.1 µM; `COc1cccc(CCNc2ncc(C#N)c(N[C@@H]3CC[C@H](O)C(C)(C)C3)n2)c1` [Cmpd 31]: less than 0.1 µM.

Take `CC(C)Oc1ccccc1CNc1ncc(C#N)c(N[C@H]2CC[C@@H](O)CC2)n1` [Cmpd 5]: the 50% inhibitory concentration (IC50) lay in the range of 0.1 to 0.8 µM.

As for `CC1(C)C[C@H](Nc2nc(NCCc3ccc(S(=O)(=O)N4CCOCC4)cc3)ncc2C#N)CC[C@@H]1O` [Cmpd 177], the half-maximal inhibitory concentration (IC50) was in the range of 0.1 to 0.8 µM. Still for that read-out and setting: next, `CC1(C)[C@@H](N)C[C@H]1Nc1nc(NCCc2cccc(Cl)c2)ncc1C#N` [Cmpd 160]: 0.8 to 2 µM; `CC1(C)[C@H](N)C[C@@H]1Nc1nc(NCCc2cccc(Cl)c2)ncc1C#N` [Cmpd 159]: less than 0.1 µM. As for `COc1ccc(CCNc2ncc(C#N)c(N[C@@H]3CC[C@H](O)C(C)(C)C3)n2)cc1` [Cmpd 94], the half-inhibitory concentration (IC50) lay in the range of 0.1 to 0.8 µM. The same measure, in the same setting: the figure for `COc1ccc(C(CNc2ncc(C#N)c(N[C@@H]3CC[C@H](O)C(C)(C)C3)n2)N2CCOCC2)cc1` (some centres unmarked) [Cmpd 39] is 2 to 10 µM; for `CC1(C)C[C@H](Nc2nc(NCCc3ccc(C(N)=O)cc3)ncc2C#N)CC[C@@H]1O` [Cmpd 154] it is 0.1 to 0.8 µM; for `CC1(C)C[C@H](Nc2nc(NCCc3ccc(-n4ccnc4)c(Cl)c3)ncc2C#N)CC[C@@H]1O` [Cmpd 180] it is less than 0.1 µM. Same read-out and setting: the figure for `COc1ccccc1CCNc1ncc(C#N)c(N[C@@H]2CC[C@H](O)C(C)(C)C2)n1` [Cmpd 30] is 0.1 to 0.8 µM; for `CC1(C)C[C@H](Nc2nc(NCCc3cccc(S(N)(=O)=O)c3)ncc2C#N)CC[C@@H]1O` [Cmpd 172] it is 0.1 to 0.8 µM. On the same count and under the same terms, next, `N#Cc1cnc(NCCc2cccc(Cl)c2)nc1N[C@H]1CC[C@H](O)CC1` [Cmpd 69]: 0.8 to 2 µM; `CC1(C)C[C@H](Nc2nc(NCCc3ccc(O)cc3)ncc2C#N)CC[C@@H]1O` [Cmpd 29]: less than 0.1 µM; `Cc1ncc(-c2ccc(CCNc3ncc(C#N)c(N[C@@H]4C[C@H](O)C4(C)C)n3)cc2)s1` [Cmpd 124]: 0.1 to 0.8 µM. With `CC1(C)C[C@H](Nc2nc(NCCc3cc(C(F)(F)F)cc(C(F)(F)F)c3)ncc2C#N)CC[C@@H]1O` [Cmpd 54], the IC50 was in the range of 0.8 to 2 µM. Take `CC1(C)C[C@H](Nc2nc(NCCc3ccc(S(N)(=O)=O)cc3)ncc2C#N)CC[C@@H]1O` [Cmpd 65]: the concentration for half-maximal inhibition (IC50) was in the range of 0.1 to 0.8 µM.

Staying with this experiment, now noted: read-out: Act. Level (IC50 in the PKC-theta Assay).
For `CC1(C)C[C@H](Nc2nc(NCc3cnccc3C(F)(F)F)ncc2C(F)(F)F)CC[C@@H]1O` [Cmpd 18], the half-inhibitory concentration (IC50) was less than 0.1 µM.

Turning to `CC(F)(F)COc1ncncc1CNc1ncc(C(F)(F)F)c(N[C@@H]2CC[C@H](O)C(C)(C)C2)n1` [Cmpd 29], the IC50 was less than 0.1 µM. Take `CCc1ncncc1CNc1ncc(C#N)c(NC2CC(C)(O)C2(C)C)n1` (centres unmarked) [Cmpd 65]: the half-maximal inhibitory concentration (IC50) is less than 0.1 µM. Still for that read-out and setting: next, `CCc1ncncc1CNc1ncc(C#N)c(N[C@@H]2C[C@@H](O)C2(C)C)n1` [Cmpd 128]: 0.1 to 0.8 µM; `Cc1ccc(Oc2ncncc2CNc2ncc(C#N)c(N[C@H]3CC[C@@H](O)CC3)n2)cc1` [Cmpd 26]: less than 0.1 µM; `N#Cc1cnc(NCCc2c[nH]c3ccccc23)nc1N[C@H]1CC[C@@H](O)CC1` [Cmpd 154]: 0.1 to 0.8 µM. The same measure, in the same setting: the figure for `CC1(C)C[C@H](Nc2nc(NCc3cncnc3OCCC(F)(F)F)ncc2C(F)(F)F)CC[C@@H]1O` [Cmpd 8] is less than 0.1 µM; for `CC1(C)[C@H](CO)C[C@H]1Nc1nc(NCc2cnccc2C(F)(F)F)ncc1C(F)(F)F` [Cmpd 66] it is less than 0.1 µM; for `N#Cc1cnc(NCCc2ncccc2C(F)(F)F)nc1N[C@H]1CC[C@@H](O)CC1` [Cmpd 151] it is 2 to 10 µM. Turning to `COc1cccc2c(CCNc3ncc(C#N)c(N[C@@H]4CC[C@H](O)C(C)(C)C4)n3)c[nH]c12` [Cmpd 177], the concentration for half-maximal inhibition (IC50) is 0.1 to 0.8 µM. Still for that read-out and setting: next, `CC1(C)[C@@H](CO)C[C@H]1Nc1nc(NCc2c[n+]([O-])ccc2C(F)(F)F)ncc1C(F)(F)F` [Cmpd 48]: less than 0.1 µM; `CC1(C)[C@@H](O)C[C@H]1Nc1nc(NCc2cnccc2C(F)(F)F)ncc1C(F)(F)F` [Cmpd 24]: less than 0.1 µM; `CC1(C)C(O)C(C)(C)C1Nc1nc(NCc2cnccc2C(F)(F)F)ncc1C#N` (centres unmarked) [Cmpd 130]: 0.1 to 0.8 µM. Still for that read-out and setting: the figure for `COc1cccc2c(CCNc3ncc(C#N)c(NC4CCC(O)CC4)n3)c[nH]c12` (centres unmarked) [Cmpd 166] is 0.8 to 2 µM. Still for that read-out and setting: next, `Cc1cnccc1CCNc1ncc(C#N)c(N[C@H]2CC[C@@H](O)CC2)n1` [Cmpd 152]: 2 to 10 µM; `CC(C)c1ncncc1CNc1ncc(C#N)c(N[C@H]2C[C@@H](O)C2(C)C)n1` [Cmpd 119]: 0.1 to 0.8 µM; `C[C@]1(O)CC[C@@H](Nc2nc(NCc3cncnc3-c3ccccc3)ncc2C#N)CC1` [Cmpd 84]: less than 0.1 µM.

Consider `Cc1cccc(Oc2ncncc2CNc2ncc(C#N)c(N[C@H]3CC[C@@](C)(O)CC3)n2)c1` [Cmpd 38], for which the IC50 was less than 0.1 µM. Same read-out and setting: the figure for `CCOc1ncncc1CNc1ncc(C(F)(F)F)c(N[C@@H]2CC[C@H](O)C(C)(C)C2)n1` [Cmpd 25] is less than 0.1 µM; for `CC1(C)[C@@H](Nc2nc(NCc3c[n+]([O-])ccc3C(F)(F)F)ncc2C(F)(F)F)C[C@@H]1O` [Cmpd 139] it is 0.1 to 0.8 µM; for `Cc1[nH]c2c(F)cc(F)cc2c1CCNc1ncc(C#N)c(N[C@@H]2CC[C@H](O)C(C)(C)C2)n1` [Cmpd 167] it is 0.1 to 0.8 µM. On the same count and under the same terms, the figure for `CC1(C)[C@H](CO)C[C@@H]1Nc1nc(NCc2c[n+]([O-])ccc2C(F)(F)F)ncc1C#N` [Cmpd 145] is 0.8 to 2 µM; for `O[C@H]1CC[C@@H](Nc2nc(NCc3cncnc3C(F)(F)F)ncc2C(F)(F)F)CC1` [Cmpd 81] it is less than 0.1 µM; for `CC(C)(O)[C@H]1CC[C@H](Nc2nc(NCc3cnccc3C(F)(F)F)ncc2C#N)CC1` [Cmpd 101] it is 0.1 to 0.8 µM. As for `Cc1cccc2c(CCNc3ncc(C#N)c(N[C@@H]4CC[C@H](O)C(C)(C)C4)n3)c[nH]c12` [Cmpd 172], the IC50 was 0.1 to 0.8 µM. The same measure, in the same setting: next, `COC1CC(Nc2nc(NCc3cnccc3C(F)(F)F)ncc2C(F)(F)F)C1(C)C` (centres unmarked) [Cmpd 103]: 0.1 to 0.8 µM. The same measure, in the same setting: next, `N#Cc1cnc(NCc2cnccc2C(F)(F)F)nc1NC1CC(O)C1` (centres unmarked) [Cmpd 90]: less than 0.1 µM; `Cc1ccn(CCNc2ncc(C#N)c(N[C@@H]3CC[C@H](O)C(C)(C)C3)n2)n1` [Cmpd 194]: 2 to 10 µM. Consider `CC(F)(F)COc1ncncc1CNc1ncc(C#N)c(N[C@H]2C[C@@H](O)C2(C)C)n1` [Cmpd 99], for which the 50% inhibitory concentration (IC50) fell in the range of 0.1 to 0.8 µM.

Take `CC1(C)C[C@H](Nc2nc(NCCc3c[nH]c4cc(Cl)ccc34)ncc2C#N)CC[C@@H]1O` [Cmpd 173]: the half-inhibitory concentration (IC50) was in the range of 0.1 to 0.8 µM. For `CC1(C)[C@@H](O)C[C@H]1Nc1nc(NCc2cncnc2-c2ccc(F)cc2)ncc1C(F)(F)F` [Cmpd 70], the half-inhibitory concentration (IC50) was less than 0.1 µM.
